Measurements reported in the supplement of paper PMC10307832.

Assays:
Test in all cases: relative viability (nuclei count vs DMSO), 5 days (fraction); higher = more cells survive
Ispinesib + Alpelisib = compound: Cc1ccc(C(=O)N(CCCN)[C@@H](c2nc3cc(Cl)ccc3c(=O)n2Cc2ccccc2)C(C)C)cc1 [Ispinesib] + Cc1nc(NC(=O)N2CCC[C@H]2C(N)=O)sc1-c1ccnc(C(C)(C)C(F)(F)F)c1 [Alpelisib] (partner 2 µM)
Procedure, shortened: (§1)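 Lung cancer cell lines in 1536-well plates got either a single drug or a fixed anchor-drug dose together with five library-drug doses (not always all listed) in √10 steps, by pin tool, on the day after seeding. Nuclei were counted after 5 days, and relative viability is the treated-to-vehicle ratio of nuclei counts. Values are medians of duplicate plates.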

Linsitinib + OSI-027 = compound: C[C@]1(O)C[C@@H](c2nc(-c3ccc4ccc(-c5ccccc5)nc4c3)c3c(N)nccn32)C1 [Linsitinib] + COc1cccc2cc(-c3nc([C@H]4CC[C@H](C(=O)O)CC4)n4ncnc(N)c34)[nH]c12 [OSI-027] (partner 0.5 µM)
Procedure, shortened: as §1

Ispinesib + Dasatinib = compound: Cc1ccc(C(=O)N(CCCN)[C@@H](c2nc3cc(Cl)ccc3c(=O)n2Cc2ccccc2)C(C)C)cc1 [Ispinesib] + Cc1nc(Nc2ncc(C(=O)Nc3c(C)cccc3Cl)s2)cc(N2CCN(CCO)CC2)n1 [Dasatinib] (partner 0.075 µM)
Procedure, shortened: as §1

Cell Line	relative viability (Ispinesib + Alpelisib; first compound 0.001 µM)	relative viability (Ispinesib + Alpelisib; first compound 0.003162 µM)	relative viability (Ispinesib + Alpelisib; first compound 0.01 µM)	relative viability (Ispinesib + Alpelisib; first compound 0.03162 µM)	relative viability (Ispinesib + Alpelisib; first compound 0.1 µM)	relative viability (Linsitinib + OSI-027; first compound 0.01 µM)	relative viability (Linsitinib + OSI-027; first compound 0.03162 µM)	relative viability (Linsitinib + OSI-027; first compound 0.1 µM)	relative viability (Linsitinib + OSI-027; first compound 0.3162 µM)	relative viability (Linsitinib + OSI-027; first compound 1 µM)	relative viability (Ispinesib + Dasatinib; first compound 0.001 µM)	relative viability (Ispinesib + Dasatinib; first compound 0.003162 µM)	relative viability (Ispinesib + Dasatinib; first compound 0.01 µM)	relative viability (Ispinesib + Dasatinib; first compound 0.03162 µM)	relative viability (Ispinesib + Dasatinib; first compound 0.1 µM)
NCI-H2023	0.65	0.606	0.659	0.5	0.18	0.425	0.215	0.358	0.212	0.12	0.693	0.613	0.613	0.306	0.146
Calu-6	1.04	0.901	0.551	0.134	0.145										
NCI-H522						0.729	0.798	0.695		0.574	0.723	1.11	1.05	0.634	0.401
HOP-62	0.656	0.957	0.908	1.17	0.981	0.877	0.866	0.96		0.544	0.815	0.824	0.837	0.534	0.251
H3255	0.677	0.8	0.736	0.492	0.33	0.654	0.682	0.725	0.467	0.576	0.316	0.419	0.357	0.307	0.244
NCI-H1734	0.659	0.743	0.763	0.721	0.517	0.737	0.469	0.634	0.504	0.293	0.428	0.53	0.53	0.337	0.187
SK-MES-1	0.905	1.42	1.07	0.681	0.286	0.541	0.417	0.603	0.458	0.332	0.326	0.373	0.384	0.165	0.231
NCI-H1792	0.838	0.68	0.692	0.393	0.44		0.728	0.619	0.481	0.292	1.25	0.777	0.776	0.9	0.325
EKVX	0.978	0.879	0.923	0.944	0.273	0.706	0.723	0.687	0.467	0.607	0.601	0.59	0.429	0.605	0.439
EPLC-272H	0.989	1.12	1.01	0.529	0.972	0.262	0.296			0.257	0.407	0.354	0.32	0.172	0.182
LK-2	1.33	0.97	1.23	1.07	0.412	0.243	0.242	0.154	0.167	0.168	0.227	0.331	0.299	0.26	0.199
CAL-12T	1.05	1.29	1.38	0.624	0.142	0.625	0.688	0.679	0.351	0.297	0.376	0.482	0.338	0.128	0.188
NCI-H322M	0.866	0.889	0.846	0.467	0.66	0.547	0.47	0.531	0.361	0.384	0.271	0.244	0.233	0.252	0.288
NCI-H1650						0.576	0.598	0.527	0.242	0.222	0.35	0.353	0.349	0.186	0.151
NCI-H1648						0.26	0.265	0.264		0.245					
SW 1573	1	0.816	1.07	0.893	0.255	0.772	0.524	0.502	0.393	0.282	0.529	0.426	0.721	0.122	0.153
NCI-H2405	0.922	0.647	0.763	0.717	0.364	0.624	0.638	0.637	0.53	0.347	0.208	0.223	0.656	0.184	0.247
LCLC-103H	0.986	1.07	1.03	0.833	0.943	0.44	0.475	0.42	0.356	0.367	0.553	0.506	0.602	0.302	0.244
HCC-44	0.805	0.878	1.11	0.822	0.234	0.503	0.41	0.465	0.181	0.232					
RERF-LC-KJ	0.836	1.32	0.77	0.794	0.631	0.617	0.602	0.553	0.298	0.251	0.835	0.697	0.448	0.281	0.391
NCI-H1975	0.738	0.672	0.666	0.332	0.226	0.68	0.738	0.722	0.544	0.347	0.443	0.43	0.425	0.158	0.114
IA-LM	0.742	0.904	1.09	0.11	0.158										
LCLC-97TM1	0.282	0.23	0.324	0.211	0.159	0.52	0.515	0.335	0.248	0.234	0.86	0.825	1.03	0.631	0.221
NCI-H520	1.04	0.98	0.767	0.276	0.243	0.232	0.188	0.25		0.332	0.164	0.229	0.178	0.152	0.198
A-427	1.1	1.21	0.993	1	1.04	0.448	0.432	0.5		0.357	0.668	0.793	0.817	0.396	0.161
